In patent publication US8247569B2, “Cyclohexane derivative and pharmaceutical use thereof” (Toray Industries, Inc., priority 2008, dated 2012):
Where two headings read alike, the source gives them in different places.

How the values were obtained:
[1] = human liver microsomal stability assay; assay type: in vitro ADME; details: liver microsomes, pH 7.4, human liver microsomes 0.5 mg/mL, test compound 2 μmol/L, 37° C., 0-30 min, read-out: Human hepatic intrinsic clearance
Protocol: A liver microsomal stability assay, which is known to be an in vitro assay for evaluation of the stability of a compound against hepatic metabolism, was carried out to evaluate the stability of Compound (I) against human and mouse hepatic metabolism.
A total of 4 times of experiments were carried out for the combinations of the compound of Example 2-B or the compound of Comparative Example 29 as the test compound and human liver microsomes (Xenotech) or mouse liver microsomes (Xenotech) as the liver microsomes.
The respective reagents to be used for the liver microsomal stability assay were prepared as follows. That is, an appropriate amount of D-glucose 6-phosphate disodium salt (hereinafter referred to as G6P) was dissolved in distilled water at 100 mmol/L, to prepare 100 mmol/L aqueous G6P solution. In 5 mL of distilled water, 1000 units of Glucose 6-phosphate dehydrogenase from Yeast (hereinafter referred to as G6PDH) was dissolved, to prepare 200 units/mL aqueous G6PDH solution. An appropriate amount of MgCl2 was dissolved in distilled water at 100 mmol/L, to prepare 100 mmol/L aqueous MgCl2 solution. To 500 mL of 200 mmol/L aqueous K2HPO4 solution, 200 mmol/L aqueous KH2PO4 solution (about 130 mL) was added, and pH was adjusted to 7.4, to prepare 200 mmol/L KH2PO4/K2HPO4 buffer pH7.4 (hereinafter referred to as 200 mmol/L PB). β-nicotinamide-adenine dinucleotide phosphate, reduced form, tetrasodium salt (hereinafter referred to as (NADPH) was dissolved in distilled water such that the NADPH content becomes 10 mmol/L based on the purity (Purity NADPH) in the assay data described in the attached document, to prepare 10 mmol/L aqueous NADPH solution.
The liver microsomal stability assay was carried out according to the following procedure. First, the reagents listed in Table 12 (excluding microsomes) were mixed together to prepare a reaction mixture, and the reaction mixture was aliquoted in 130 μL volumes to 4 wells (which play roles as the wells for the 0-minute reaction, well for the 30-minute reaction, well for the 20-minute reaction and well for the 10-minute reaction, respectively) in a 96-well tube plate (BM Equipment Co., Ltd; hereinafter referred to as plate). The entire plate was covered with a silicone cap, and the plate was subjected to preincubation by being soaked in a water bath at 37° C. for 10 minutes.
After the preincubation, 3.75 μL of 20 mg/mL microsome suspension+16.25 μL of distilled water (20 μL in total) were added to the well for the 30-minute reaction, and the plate was covered with the cap, followed by soaking the plate in a water bath at 37° C. to initiate the reaction.
Ten minutes after the beginning of the reaction, 3.75 μL of 20 mg/mL microsome suspension+16.25 μL of distilled water (20 μL in total) were added to the well for the 20-minute reaction, and 20 minutes after the beginning of the reaction, 3.75 μL of 20 mg/mL microsome suspension+16.25 μL of distilled water (20 μL in total) were added to the well for the 10-minute reaction. The reaction was further continued by keeping the plate soaked in the water bath at 37° C.
Thirty minutes after the beginning of the reaction, the plate was removed from the water bath, and 120 μL of acetonitrile was added to each well, followed by covering the plate with the cap, stirring the plate for 10 seconds with Direct Mixer, and stopping the reaction by 10 minutes of ice cooling. After the reaction was stopped, 3.75 μL of 20 mg/mL microsome suspension+16.25 μL of distilled water (20 μL in total) were added to the well for the 0-minute reaction.
The reaction liquid in each well was centrifuged at 4° C. at 2500 rpm for 10 minutes, and the supernatant was transferred to a glass-coated microplate (TOMSIC Plate+) to begin LC/MS/MS analysis. The conditions for the LC/MS/MS analysis were as follows: […]

[2] = tested on: mouse sciatic nerve-ligation model (Seltzer model); test: mouse partial sciatic nerve ligation model (Seltzer model), von Frey test; details: for von Frey total score compared to the vehicle group: 1 hour after oral administration, doses as in Table 11; for von Frey Total Score Observed 1 Hour after Oral Administration (mean ± standard error), Compound-administered group: n = 5 to 6
[3] = tested on: mouse acetic acid writhing model; test: mouse acetic acid writhing model (nociceptive pain); assay type: in vivo; details: for ED50: male ddY mice, oral administration 45 min before 0.6% acetic acid i.p., dose suppressing 50% of writhing responses vs vehicle group, vehicle A or B

| Structure (SMILES) | ED50 ([3]; Mus musculus, read-out: ED50) [mg/kg] | also measured |
| --- | --- | --- |
| COc1ccc(-c2cc(C3(O)CCC(O)CC3)nn2-c2ccc(OC)cc2)cc1 (single isomer, unassigned) [Example 4-B, 1-(1,5-Bis(4-methoxyphenyl)-1H-pyrazol-3-yl)cyclohexan-cis-1,4-diol] | – | microsomal CLint at 2 μmol/L [1]: 8.69 µL/min/mg; von Frey total score compared to the vehicle group [2]: significantly improved; von Frey Total Score Observed 1 Hour after Oral Administration (mean ± standard error), Compound-administered group ([2]; dose 10 mg/kg oral, […]): 2.2 ± 0.5 |
| COc1ccc(-c2nc(C3(O)CCC(O)CC3)oc2-c2ccc(OC)cc2)cc1 (single isomer, unassigned) [Example 67-B, 4-(4,5-Bis(4-methoxyphenyl)oxazol-2-yl)cyclohexan-cis-1,4-diol] | 7.32 | microsomal CLint at 2 μmol/L [1]: 12.7 µL/min/mg; von Frey total score compared to the vehicle group [2]: significantly improved; von Frey Total Score Observed 1 Hour after Oral Administration (mean ± standard error), Compound-administered group ([2]; dose 10 mg/kg oral, […]): 0.8 ± 0.7 |
| COc1ccc(-n2nc(C3(O)CCC(O)CC3)cc2-c2ccc(S(C)(=O)=O)cc2)cc1 (stereo not drawn) [Comparative Example 3] | > 10 | – |
| COc1ccc(-n2nc(C3(OC(C)=O)CCC(O)CC3)cc2-c2ccc(C)cc2)cc1 (stereo not drawn) [Comparative Example 26, c-4-Hydroxy-1-(1-(4-methoxyphenyl)-5-(p-tolyl)-1H-pyrazol-3-yl)-cyclohexan-r-1-yl acetate] | > 10 | – |
| COc1ccc(-n2nc(C3(OC)CCC(O)CC3)cc2-c2ccc(C)cc2)cc1 (stereo not drawn) [Comparative Example 27, 4-Methoxy-4-(1-(4-methoxyphenyl)-5-p-tolyl-1H-pyrazol-3-yl)cyclohexanol] | > 10 | – |
| COc1ccc(-n2nc(C3(O)CCC(O)CC3)c(F)c2-c2ccc(C)cc2)cc1 (stereo not drawn) [Comparative Example 28, 1-(4-Fluoro-1-(4-methoxyphenyl)-5-(p-tolyl)-1H-pyrazol-3-yl)cyclohexan-cis-1,4-diol] | > 10 | – |
| NS(=O)(=O)c1ccc(-n2nc(C3CCCCC3)cc2-c2ccccc2)cc1CO [Comparative Example 30, 4-(3-Cyclohexyl-5-phenyl-1H-pyrazol-1-yl)-2-(hydroxymethyl)benzenesulfonamide] | > 10 | reduction in the number of writhing responses ([3]; administration of 10 mg/kg, t-test): did not cause significant reduction |
| COc1ccc(-n2nc(C3(O)CCCCC3)cc2-c2ccc(C)cc2)cc1 [Compound 1] | 3.78 | – |
| CCc1ccc(-c2cc(C3(O)CCC(O)CC3)nn2-c2ccc(OC)cc2)cc1 (stereo not drawn) [Compound 28] | 5.27 | – |
| COc1ccc(-n2nc(C3(O)CCC(O)CC3)cc2-c2ccc(C)cc2)cc1F (stereo not drawn) [Compound 29] | 3.77 | – |
| COc1ccc(-n2nc(C3(O)CCC(O)CC3)cc2-c2ccc(C)cc2)cc1F (stereo not drawn) [Compound 30] | – | von Frey Total Score Observed 1 Hour after Oral Administration (mean ± standard error), Compound-administered group ([2]; dose 10 mg/kg oral, […]): 1.2 ± 0.6 |
| COc1ccc(-n2nc(C3(O)CCC(O)CC3)cc2-c2ccc(C)c(F)c2)cc1 (stereo not drawn) [Compound 31] | 0.41 | von Frey Total Score Observed 1 Hour after Oral Administration (mean ± standard error), Compound-administered group ([2]; dose 3 mg/kg oral, vehicle B (27% HP-β-CD)): 0.7 ± 0.5 |
| COc1ccc(-n2nc(C3(O)CCC(O)CC3)cc2-c2ccc(C)cc2)cc1 (stereo not drawn) [Example 2-A, 1-(1-(4-Methoxyphenyl)-5-(p-tolyl)-1H-pyrazol-3-yl)cyclohexan-trans-1,4-diol] | 1.8 | microsomal CLint at 2 μmol/L [1]: 45.1 µL/min/mg; analgesic effect 3 hours after the oral administration (von Frey test) ([2]; oral administration of 0.3 mg/kg, FIG. 1): a strong analgesic effect was maintained |
| Cc1ccc(-c2cc(C3(O)CCC(O)CC3)nn2-c2ccc(Cl)cc2)cc1 (stereo not drawn) [Example 6-A, 1-(1-(4-Chlorophenyl)-5-p-tolyl-1H-pyrazol-3-yl)cyclohexan-trans-1,4-diol] | 7.97 | – |
| CCc1ccc(-c2cc(C3(O)CCC(O)CC3)nn2-c2ccc(OC)cc2)cc1 (stereo not drawn) [Example 28] | – | microsomal CLint at 2 μmol/L [1]: 3.19 µL/min/mg |
| COc1ccc(-n2nc(C3(O)CCC(O)CC3)cc2-c2ccc(C)cc2)cc1F (stereo not drawn) [Example 30] | – | microsomal CLint at 2 μmol/L [1]: 3.92 µL/min/mg |
| COc1ccc(-n2nc(C3(F)CCC(O)CC3)cc2-c2ccc(C)cc2)cc1 (stereo not drawn) [Example 60, t-4-Fluoro-4-(1-(4-methoxyphenyl)-5-(p-tolyl)-1H-pyrazol-3-yl)-cyclohexan-r-1-ol] | 1.37 | – |
| COc1ccc(-n2nc(C3(O)CCC(OC)CC3)cc2-c2ccc(C)cc2)cc1 (stereo not drawn) [Example 63, 4-Methoxy-1-(1-(4-methoxyphenyl)-5-(p-tolyl)-1H-pyrazol-3-yl)cyclohexanol] | 5.36 | – |

| Structure (SMILES) | ED50 ([3]; Mus musculus, read-out: ED50) [mg/kg] | also measured |
| --- | --- | --- |
| COc1ccc(-n2nc(C3(CO)CCC(O)CC3)cc2-c2ccc(C)cc2)cc1 (stereo not drawn) [Example 65-A, 4-(Hydroxymethyl)-4-(1-(4-methoxyphenyl)-5-p-tolyl-1H-pyrazol-3-yl)-trans-1,4-cyclohexanol] | 1.44 | – |
| COc1ccc(-c2nc(C3(O)CCC(O)CC3)sc2-c2ccc(C)cc2)cc1 (stereo not drawn) [Example 69-A, 1-(4-(4-Methoxyphenyl)-5-(p-tolyl)thiazol-2-yl)cyclohexan-trans-1,4-diol] | 3.02 | – |
| COc1ccc(-c2nc(C3(O)CCC(O)(C(F)(F)F)CC3)sc2-c2ccc(C)cc2)cc1 (stereo not drawn) [Example 70-B, 1-(4-(4-Methoxyphenyl)-5-(p-tolyl)thiazol-2-yl)-4-(trifluoromethyl)cyclohexan-cis-1,4-diol] | – | ED50 [3]: 9.65 mg/kg |
| CCOC(=O)C1CCC(O)(c2cc(-c3ccc(C)cc3)n(-c3ccc(OC)cc3)n2)CC1 (stereo not drawn) [Example 71, Ethyl 4-hydroxy-4-(1-(4-methoxyphenyl)-5-p-tolyl-1H-pyrazol-3-yl)-cis-cyclohexanecarboxylate] | 1.58 | – |
| COc1ccc(-n2nc(C3(O)CCC(O)CC3)cc2-c2ccccc2C)cc1 (stereo not drawn) [compound 1] | > 10 | – |
| OC1CCC(O)(c2cc(-c3ccc(Cl)cc3)n(-c3ccc(F)cc3)n2)CC1 (stereo not drawn) [compound 5] | > 10 | – |
| OC1CCC(O)(c2cc(-c3ccc(Cl)cc3)n(-c3ccc(Cl)cc3Cl)n2)CC1 (stereo not drawn) [compound 7] | > 10 | – |
| COc1ccc(-n2nc(C3(O)CCC(O)CC3)cc2-c2cccc(C)c2)cc1 (stereo not drawn) [compound 10] | > 10 | – |
| Cc1ccc(-c2cc(C3(O)CCC(O)CC3)nn2-c2ccc(F)cc2)cc1 (stereo not drawn) [compound 11] | > 10 | – |
| COc1ccc(-n2nc(C3(O)CCC(O)CC3)cc2-c2ccc(F)cc2)cc1 (stereo not drawn) [compound 13] | > 10 | – |
| OC1CCC(O)(c2cc(-c3ccc(F)cc3)n(-c3ccc(Cl)cc3)n2)CC1 (stereo not drawn) [compound 15] | > 10 | – |
| OC1CCC(O)(c2cc(-c3ccc(F)cc3)n(-c3ccc(F)cc3)n2)CC1 (stereo not drawn) [compound 17] | > 10 | – |
| OC1CCC(O)(c2cc(-c3ccc(F)cc3)n(-c3ccccc3)n2)CC1 (stereo not drawn) [compound 19] | > 10 | – |
| Cc1ccc(-n2nc(C3(O)CCC(O)CC3)cc2-c2ccc(F)cc2)cc1 (stereo not drawn) [compound 21] | > 10 | – |
| Cc1ccc(-c2cc(C3(O)CCC(O)CC3)nn2-c2ccc(S(C)(=O)=O)cc2)cc1 (stereo not drawn) [compound 23] | > 10 | – |
| COc1ccc(-n2nc(C3(O)CCC(O)CC3)cc2-c2cccnc2OC)cc1 (stereo not drawn) [compound 24] | > 10 | – |
| NCC1(CC(=O)O)CCCCC1 [gabapentin, reference compound] | – | analgesic effect 3 hours after the oral administration (von Frey test) ([2]; positive controls, gabapentin 30 mg/kg oral, dose of Comparative Example 29 not given): drastically decreased; time of strongest analgesic effect after oral administration (von Frey test) ([2]; positive controls, gabapentin 30 mg/kg oral, dose of Comparative Example 29 not given, FIGS. 1 to 4): 1 h |
